Reference: patent US20200399238A1, “THERAPEUTIC AURONES” (MIDDLE TENNESSEE STATE UNIVERSITY, priority 2016, published 2020)
pIC50: −log10 of the molar value. Read-outs that look alike come from different tables or passages of the source.

Experiments:
[1] = system: Trypanosoma brucei brucei 427 cells; assay: T. brucei culture and assay (PrestoBlue); format: cell-based
[2] = system: Leishmania amazonensis promastigotes expressing beta-lactamase; assay: microbe, parasite or virus in culture; format: cell-based; conditions: for pIC50: Leishmania amazonensis
[3] = system: rat skeletal muscle cell line, L6; assay: cells; format: cell-based
[4] = system: Trypanosoma cruzi Tulahuen cells expressing beta-galactosidase; assay: T. cruzi intracellular assay (beta-galactosidase, L6 host cells); conditions: for pIC50: Trypanosoma cruzi, TULAHUEN; for Selectivity L6/TC-I: Table 3A
[5] = Trypanosoma brucei, Table 1, mean of 2(+) independent trials, read-out: IC50 T. brucei
[6] = read-out: IC50 L. amaz. (footnote c: value obtained from one trial)
[7] = Rattus norvegicus, Table 1, read-out: IC50 Toxicity (L6)
[8] = read-out: IC50 T. cruzi, Table 1, intracellular assay, mean of 2(+) trials (^c one trial)
[9] = read-out: IC50 T. cruzi, Table 2, intracellular assay, mean of 2(+) independent trials
[10] = Table 2, mean of 2(+) independent trials, read-out: IC50 T. brucei
[11] = Table 2, L6 IC50 / L. amazonensis IC50
[12] = Rattus norvegicus, Table 3A, weighted means of two or more independent trials, read-out: IC50 L6
[13] = Table 1, intracellular T. cruzi IC50
[14] = Table 2, L6 IC50 / T. cruzi IC50 (intracellular assay)
[15] = estimated from highest L6 dose tested where no L6 IC50
[16] = read-out: IC50 TC-I, Table 3A, weighted means of two or more independent trials
[17] = Table 2, L6 IC50 / T. brucei IC50
[18] = Table 3A, estimated from highest L6 dose tested where no L6 IC50
[19] = Table 2, L6 mammalian cells, read-out: IC50 Toxicity (L6)
[20] = Rattus norvegicus, Table 3B, weighted means of two or more independent trials, read-out: IC50 L6
[21] = read-out: IC50 TC-I, Table 3B, weighted means of two or more independent trials

SMILES	pIC50 [1, 5]	pIC50 ([2]; read-out: IC50 L. amaz.)	pIC50 [3, 7]	melting point	pIC50 [4, 8]	pIC50 [4, 9]	pIC50 [1, 10]	Selectivity L6/La ([2]; Table 1)	Selectivity L6/La [2, 11]	pIC50 [3, 12]	Selectivity L6/Tc [4, 13]	Selectivity L6/Tc [4, 14]	Selectivity L6/TC-I [4, 15]	pIC50 [4, 16]	other results
CCc1ccc(/C=C2\Oc3ccccc3C2=O)cc1 [Aurone 8001, (Z)-2-(4-ethylbenzylidene)benzofuran-3(2H)-one]	4.33	5.19	< 4.00	71 to 74 °C	4.94	4.94	–	–	–	–	–	–	–	–	pIC50 [2, 6]: 5.19
O=C1/C(=C/c2ccccc2F)Oc2ccccc21 [Aurone 9004, (Z)-2-(2-fluorobenzylidene)benzofuran-3(2H)-one]	< 4.30	4.98	3.75	76 to 81 °C	4.66	4.66	< 4.30	16.83	16.83	3.75	8.00	8.00	8.00	4.66	pIC50 [2, 6]: 4.98
O=C1/C(=C/c2ccccc2Br)Oc2ccccc21 [Aurone 9006, (Z)-2-(2-bromobenzylidene)benzofuran-3(2H)-one]	4.55	> 6.00	3.65	134 to 140 °C	4.67	4.67	–	>226.08	>226.08	3.65	10.61	10.61	10.61	4.67	Selectivity L6/Tb ([1]; Table 1): 7.98; Selectivity L6/Tb [1, 17]: 7.98; Selectivity L6/Tb [1, 18]: 7.98; pIC50 [2, 6]: > 6.00
O=C1/C(=C/c2ccccc2Cl)Oc2ccccc21 [Aurone 9007, (Z)-2-(2-chlorobenzylidene)benzofuran-3(2H)-one]	4.95	4.76	3.62	118 to 126 °C	4.90	4.90	–	13.55	13.55	3.62	18.72	18.72	18.72	4.90	Selectivity L6/Tb ([1]; Table 1): 21.02; Selectivity L6/Tb [1, 17]: 21.02; Selectivity L6/Tb [1, 18]: 21.02; pIC50 [2, 6]: 4.76
O=C1/C(=C/c2cccc(F)c2)Oc2ccccc21 [Aurone 9024, (Z)-2-(3-fluorobenzylidene)benzofuran-3(2H)-one]	< 4.30	4.70	< 4.00	111 to 113 °C	5.18	5.18	< 4.30	>4.98	>4.98	< 4.00	–	–	14.99	5.18	pIC50 [3, 19]: < 4.00
O=C1/C(=C/c2cccc(Cl)c2)Oc2ccccc21 [Aurone 9026, (Z)-2-(3-chlorobenzylidene)benzofuran-3(2H)-one]	4.56	4.90	4.11	86 to 89 °C	4.96	–	–	6.15	–	4.11	7.07	–	7.07	4.96	Selectivity L6/Tb ([1]; Table 1): 2.83; Selectivity L6/Tb [1, 18]: 2.83
O=C1/C(=C/c2cccc(I)c2)Oc2ccccc21 [Aurone 9028, (Z)-2-(3-iodobenzylidene)benzofuran-3(2H)-one]	< 4.30	5.58	< 4.00	99 to 105 °C	5.12	5.12	< 4.30	>38.31	>38.31	< 4.00	>13.26	>13.26	>13.26	5.12	pIC50 [3, 19]: < 4.00
O=C1/C(=C/c2ccc(I)cc2)Oc2ccccc21 [Aurone 9029, (Z)-2-(4-iodobenzylidene)benzofuran-3(2H)-one]	< 4.30	5.51	< 4.00	176 to 179 °C	4.96	4.96	< 4.30	>32.15	>32.15	< 4.00	>9.04	>9.04	>9.04	4.96	pIC50 [3, 19]: < 4.00
COC(=O)c1ccc(/C=C2\Oc3ccccc3C2=O)cc1 [Aurone 9047, Methyl (Z)-4-((3-oxobenzofuran-2(3H)-ylidene)methyl)benzoate]	< 4.30	4.62	< 4.00	144 to 147 °C	< 4.30	–	–	>4.13	–	< 4.00	–	–	–	< 4.30	–
O=C1/C(=C/c2cc(Br)c(Br)s2)Oc2ccccc21 [Aurone 9050, (Z)-2-((4,5-dibromothiophen-2-yl)methylene)benzofuran-3(2H)-one]	< 4.30	5.03	< 4.00	185 to 190 °C	< 4.30	< 4.30	–	–	–	–	–	–	–	–	pIC50 [3, 20]: < 4.00; pIC50 [4, 21]: < 4.30
O=C1/C(=C/c2ccccn2)Oc2ccccc21 [Aurone 9051, (Z)-2-(pyridin-2-ylmethylene)benzofuran-3(2H)-one]	4.64	5.20	4.10	119 to 121 °C	4.71	4.71	–	–	–	–	–	–	–	–	pIC50 ([1]; Trypanosoma brucei, read-out: T. brucei IC50 dose): 4.64; pIC50 [3, 20]: 4.10; pIC50 [4, 21]: 4.71
COc1cc(Br)c(/C=C2\Oc3ccccc3C2=O)cc1OC [Aurone 9056, (Z)-2-(2-bromo-4,5-dimethoxybenzylidene)benzofuran-3(2H)-one]	4.66	5.74	< 4.00	144 to 147 °C	4.44	4.44	–	–	–	–	–	–	–	–	–
Cc1ccccc1/C=C1\Oc2ccccc2C1=O [Aurone 9057, (Z)-2-(2-methylbenzylidene)benzofuran-3(2H)-one]	4.61	> 6.00	4.00	89 to 93 °C	4.58	4.58	–	–	–	–	–	–	–	–	–
O=C1/C(=C/c2ccc(Br)s2)Oc2ccccc21 [Aurone 9058, (Z)-2-((5-bromothiophen-2-yl)methylene)benzofuran-3(2H)-one]	< 4.30	5.56	4.10	155 to 158 °C	4.46	4.46	< 4.30	29.05	29.05	–	2.28	2.28	–	–	pIC50 [3, 20]: 4.10; Selectivity L6/Tc-I ([4]; Table 3B, estimated from highest L6 dose tested where no L6 IC50): 2.28; pIC50 [4, 21]: 4.46
